Source: paper PMC7188706 (Cancer Chemotherapy and Pharmacology, 2020)
Entries after “also recorded” stand apart in the source; their conditions may differ. Like-named read-outs stand apart in the source and are kept apart here. Values belong to the compound of their own block, whether it stands above or below them.

Key:
[1] = tested on: advanced solid malignancies; settings: cited from earlier work
[2] = Plasma pharmacokinetics and drug monitoring of high-dose, pulsatile sorafenib (LC-MS/MS, non-compartmental); settings: for Cmax / AUC(0-t): human, oral
[3] = set-up: method as in PMID 26858332; settings: patients using omeprazole; cited from earlier work
[4] = tested on: NSCLC patients; set-up: method as in PMID 16878326; settings: 2000 mg per week; cited from earlier work
[5] = tested on: patients with known EGFR mutations; settings: cited from earlier work
[6] = cited from earlier work
[7] = cited from earlier work; remark: listed apart in the source
[8] = tested on: patients with advanced solid malignancies; settings: in vivo;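 further: Single-center phase I trial, adverse events graded by NCI CTCAE version 4.0, safety checks weekly over the first 8 weeks, then every 4 weeks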
[9] = tested on: progressive renal cell carcinoma; settings: 600 mg twice daily after failure of standard dosing; cited from earlier work
[10] = tested on: 789-O renal cell carcinoma xenografts; settings: high-dose schedule; also increased reduction of tumor perfusion and microvessel density; cited from earlier work
[11] = Effect of cola versus water on sorafenib exposure (dose normalized Cmax and AUC(0–12 h)); type: in vivo, human; settings: dissolved in cola vs water, patients using PPI
Text: Descriptive statistics were used to describe patient characteristics, treatment administration, safety, efficacy and pharmacokinetic data. Progression-free survival (PFS) was defined as the time from first treatment until progression of disease or death as a result of any cause. Fisher’s exact tests were used to assess correlations between exposure level or dose and frequency of AEs. […] Data were considered significant at P < 0.05.

[12] = tested on: advanced solid malignancies; assay: Tumor response by CT or MRI using RECIST version 1.1; type: in vivo, human
Method: Tumor response was assessed by computed tomography or magnetic resonance imaging at baseline and every 8 weeks thereafter using RECIST version 1.1 [24].
Descriptive statistics were used to describe patient characteristics, treatment administration, safety, efficacy and pharmacokinetic data. […] Fisher’s exact tests were used to assess correlations between exposure level or dose and frequency of AEs. […] Data were considered significant at P < 0.05.

[13] = tested on: patients; settings: cited from earlier work
[14] = cited from earlier work; remark: listed apart in the source
[15] = tested on: patients with advanced solid malignancies; assay: Phase I safety: treatment-related adverse events (CTCAE v4.0) and dose-limiting toxicity of once weekly high-dose, pulsatile sorafenib;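 further: Single-center phase I trial, adverse events graded by NCI CTCAE version 4.0, safety checks weekly over the first 8 weeks, then every 4 weeks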
[16] = set-up: method as in PMID 15613696; settings: 400 mg twice daily; cited from earlier work
[17] = cited from earlier work; remark: listed apart in the source
[18] = tested on: HER2-positive breast cancer; set-up: method as in PMID 24711549; settings: escalated to 7000 mg on days 1–5 of repeating 14-day cycles, heavily pre-treated patients; cited from earlier work

SMILES: CCN(CC)CCNC(=O)c1c(C)[nH]c(/C=C2\C(=O)Nc3ccc(F)cc32)c1C [sunitinib]
increase of Cmax ([1]; 14 times the conventional dose): 18 fold
patients with PFS of ≥ 5 months [1]: 30%
patients with clinical benefit ([1]; more than 70 heavily pre-treated patients): 63%

metabolite as share of the parent drug ([2]; plasma): approximately 4%
SMILES: CNC(=O)c1cc(Oc2ccc(NC(=O)Nc3ccc(Cl)c(C(F)(F)F)c3)cc2)cc[n+]1[O-] [sorafenib N-oxide]

SMILES: C#Cc1cccc(Nc2ncnc3cc(OCCOC)c(OCCOC)cc23)c1 [erlotinib]
effect of cola intake on bioavailability [3]: did improve by cola intake
mean overall survival (OS) [4]: 9.5 months
tolerability [4]: well tolerated
tolerability ([5]; erlotinib 450 mg every 3 days or gefitinib 1000 mg every 4 days): well tolerated
median PFS ([5]; erlotinib 450 mg every 3 days): 6 months
response rate ([5]; erlotinib 450 mg every 3 days): 15%

SMILES: CNC(=O)c1cc(Oc2ccc(NC(=O)Nc3ccc(Cl)c(C(F)(F)F)c3)cc2)ccn1 [sorafenib]
association of higher AUCmax (> 100 mg/L/h) with outcome [6]: longer progression-free survival
enterohepatic circulation [7]: has been observed
ALP increased, Grade All, no. of patients (%) ([8]; human): 3 (20%)
ALP increased, Grade ≥ 3, no. of patients (%) ([8]; human): 2 (13%)
Anorexia, Grade All, no. of patients (%) ([8]; human): 3 (20%)
Anorexia, Grade ≥ 3, no. of patients (%) ([8]; human): 0
Bilirubin increased, Grade All, no. of patients (%) ([8]; human): 2 (13%)
Bilirubin increased, Grade ≥ 3, no. of patients (%) ([8]; human): 0
Bloating, Grade All, no. of patients (%) ([8]; human): 2 (13%)
Bloating, Grade ≥ 3, no. of patients (%) ([8]; human): 0
Diarrhea, Grade All, no. of patients (%) ([8]; human): 4 (27%)
Diarrhea, Grade ≥ 3, no. of patients (%) ([8]; human): 0
Fatigue, Grade All, no. of patients (%) ([8]; human): 10 (67%)
Fatigue, Grade ≥ 3, no. of patients (%) ([8]; human): 0
GGT increased, Grade All, no. of patients (%) ([8]; human): 1 (7%)
GGT increased, Grade ≥ 3, no. of patients (%) ([8]; human): 1 (7%)
Multiorgan failure, Grade All, no. of patients (%) ([8]; human): 1 (7%)
Multiorgan failure, Grade ≥ 3, no. of patients (%) ([8]; human): 1 (7%)
Nausea, Grade All, no. of patients (%) ([8]; human): 10 (67%)
Nausea, Grade ≥ 3, no. of patients (%) ([8]; human): 0
Perforation, Grade All, no. of patients (%) ([8]; human): 2 (13%)
Perforation, Grade ≥ 3, no. of patients (%) ([8]; human): 2 (13%)
Stomatitis, Grade All, no. of patients (%) ([8]; human): 2 (13%)
Stomatitis, Grade ≥ 3, no. of patients (%) ([8]; human): 0
Vomiting, Grade All, no. of patients (%) ([8]; human): 8 (53%)
Vomiting, Grade ≥ 3, no. of patients (%) ([8]; human): 0
diarrhea, frequency ([8]; human): 27%
doses from which grade ≥ 3 AEs developed ([8]; human): ≥ 2800 mg/week
fatigue, frequency ([8]; human): 67%
incidence of perforation ([8]; human): 13%
nausea, frequency ([8]; human): 67%
patients requiring dose interruptions ([8]; human): 33%
patients with dose interruptions due to DLTs leading to permanent study discontinuation ([8]; human): 20%
vomiting, frequency ([8]; human): 53%
dose-limiting toxicity, one patient ([8]; human, 3 cycles): grade 5 biliary tract perforation
frequency and rate of grade ≥ 3 AEs versus dose [8]: increased with a higher dose of sorafenib
frequency and rate of grade ≥ 3 AEs versus exposure [8]: did not increase with higher exposure
patients with dose-limiting toxicity [8]: three patients
Observed AUC(0–12 h) week 3, mean (± SD) ([2]; Cohort 1, target AUC(0–12 h) 25–50 mg/L/h, PK-guided dose week 3 533 (± 306) mg, plasma): 31 (± 13) mg/L/h
mean difference between observed and target AUC(0–12 h), week 3 ([2]; after drug monitoring / personalized dose titration, SD ± 32%, P = 0.06 vs week 1): 2%
mean difference between observed and target AUC(0–12 h), week 1 ([2]; fixed starting dose, SD ± 56%): 45%
Cmax ([2]; plasma, 533 mg, Cmax week 3, mean (± SD), Cohort 1, PK-guided dose week 3 533 (± 306) mg): 4380 ng/mL
AUC(0-t) ([2]; plasma, 1000 mg, AUC(0–12 h), range, first exposure cohort, target AUC(0–12 h) 25–50 mg/L/h): 61 to 103 µg·h/mL
AUC(0-t) ([2]; plasma, 1000 mg, Observed AUC(0–12 h) week 1, mean (± SD), Cohort 1, 3 patients, target AUC(0–12 h) 25–50 mg/L/h, fixed dose week 1 1000 mg): 78 µg·h/mL
Cmax ([2]; plasma, 1867 mg, Cmax week 3, mean (± SD), Cohort 2, PK-guided dose week 3 1867 (± 993) mg): 11100 ng/mL
Cmax ([2]; plasma, 2000 mg, Cmax week 1, mean (± SD), Cohort 2, 8 patients, fixed dose week 1 2000 mg): 13700 ng/mL
AUC(0-t) ([2]; plasma, 2000 mg, Observed AUC(0–12 h) week 1, mean (± SD), Cohort 2, 8 patients, target AUC(0–12 h) 75–100 mg/L/h, fixed dose week 1 2000 mg): 125 µg·h/mL
Cmax ([2]; plasma, 2333 mg, Cmax week 3, mean (± SD), Cohort 3, PK-guided dose week 3 2333 (± 219) mg): 13300 ng/mL
Cmax ([2]; plasma, 2400 mg, Cmax week 1, mean (± SD), Cohort 3, 3 patients, fixed dose week 1 2400 mg): 20800 ng/mL
Cmax ([2]; plasma, 2400 mg, Cmax, highest, SD ± 11 mg/L): ≤ 21000 ng/mL
AUC(0-t) ([2]; plasma, 2400 mg, highest exposure levels, AUC(0–12 h), SD ± 113 mg/L/h): ≤ 204 µg·h/mL
AUC(0-t) ([2]; plasma, 2800 mg, Observed AUC(0–12 h) week 1, mean (± SD), Cohort 4, 3 patients, target AUC(0–12 h) 125–150 mg/L/h, fixed dose week 1 2800 mg): 120 µg·h/mL
AUC(0-t) ([2]; plasma, 3600 mg, observed AUC(0–12 h), individual patient, patient with grade 5 biliary tract perforation, sorafenib dose 3600 mg): 182 µg·h/mL
sorafenib dose up to which mean exposure increased ([2]; no additional increases thereafter, divided doses of 200–400 mg every 2 h): up to 2400 mg per week
accumulation a week after each ingestion ([2]; once weekly): No accumulation
patients with tumor reduction [9]: 42%
tumor growth in comparison to continuous conventional dosing [10]: slower tumor growth
effect of cola on sorafenib AUC(0–12 h) ([11]; P = 0.24): did not improve sorafenib exposure; also recorded: did not lead to an increase; also recorded: did not affect
effect of cola on sorafenib Cmax ([11]; P = 0.33): did not lead to an increase; also recorded: did not affect
duration of stable disease ([12]; patient with cholangiocarcinoma, target exposure 75–100 mg/L/h, 2400 mg/week): 3 months
duration of stable disease ([12]; patient with hepatocellular carcinoma, target exposure 100–125 mg/L/h, 4800 mg/week): 5.5 months
complete or partial responses ([12]; thirteen patients evaluable): No complete or partial responses were observed
progressive disease, patients ([12]; thirteen patients evaluable, eleven patients): 85%
best response stable disease, patients ([12]; thirteen patients evaluable, two patients): 15%
incidence of perforation of the gastrointestinal tract ([13]; standard continuous schedule): < 1%
most important DLTs ([13]; standard dose sorafenib, several phase I studies): skin toxicity, diarrhea and fatigue
improvement of absorption by multiple divided doses per day [14]: 50%
effects of PPI on sorafenib absorption ([14]; contradicting results): no effects to one-third reduction
dose above which absorption is saturable ([14]; daily continuous schedule): > 800 mg/day
improvement of absorption by a moderate fat meal ([14]; in comparison to a high fat meal of ≥ 50% fat): 30%
tolerated dose in a pulsatile schedule as multiple of conventional dose [15]: ~ 3.5 times
mean Cmax, steady state [16]: 5400 to 9400 ng/mL
mean sorafenib exposure (AUC), day 1 [16]: 21.8 to 107 mg/L/h
mean sorafenib exposure (AUC), steady state [16]: 47.8 to 71.7 mg/L/h
solubility ([17]; pH 1.0): 0.034 mg/100 mL
solubility ([17]; pH 4.5): 0.013 mg/100 mL

SMILES: CS(=O)(=O)CCNCc1ccc(-c2ccc3ncnc(Nc4ccc(OCc5cccc(F)c5)c(Cl)c4)c3c2)o1 [lapatinib]
objective response rate [18]: 15%
